# In patent US12433881B2, “Nicotine tablet” (Fertin Pharma A/S, priority 2017, dated 2025):
# Settings: nicotine concentration increased from 100 microgram/mL to 14,000 microgram/mL
smiles,measurement,value
CN1CCCC1c1cccnc1 (stereo not shown) [nicotine],change of permeability of nicotine across the buccal mucosa,decrease of about a factor of two
